From PubChem BioAssay (NCI)
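How tested: cells in 96-well plates exposed to compound for 48 hours at five concentrations. GI50 is the concentration that inhibits growth by half. TGI denotes the concentration required for complete inhibition of growth.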

What was measured:
Assay in all cases: DTP human tumour cell line panel, 48 h
786-0 renal = test system: 786-0 renal
A498 renal = test system: A498 renal
A549 NSCLC = test system: A549 NSCLC
ACHN renal = test system: ACHN renal
BT-549 breast = test system: BT-549 breast
CAKI-1 renal = test system: CAKI-1 renal
CCRF-CEM leukemia = test system: CCRF-CEM leukemia
COLO 205 colon = test system: COLO 205 colon
DU-145 prostate = test system: DU-145 prostate
EKVX NSCLC = test system: EKVX NSCLC
HCC-2998 colon = test system: HCC-2998 colon
HCT-116 colon = test system: HCT-116 colon
HCT-15 colon = test system: HCT-15 colon
HL-60(TB) leukemia = test system: HL-60(TB) leukemia
HOP-62 NSCLC = test system: HOP-62 NSCLC
HOP-92 NSCLC = test system: HOP-92 NSCLC
HS 578T breast = test system: HS 578T breast
HT29 colon = test system: HT29 colon
K-562 leukemia = test system: K-562 leukemia
KM12 colon = test system: KM12 colon
LOX IMVI melanoma = test system: LOX IMVI melanoma
M14 melanoma = test system: M14 melanoma
MCF7 breast = test system: MCF7 breast
MDA-MB-231 breast = test system: MDA-MB-231 breast
MDA-MB-435 = test system: MDA-MB-435
MOLT-4 leukemia = test system: MOLT-4 leukemia
NCI-H226 lung = test system: NCI-H226 lung
NCI-H23 lung = test system: NCI-H23 lung
NCI-H460 lung = test system: NCI-H460 lung
NCI-H522 lung = test system: NCI-H522 lung
NCI/ADR-RES ovarian = test system: NCI/ADR-RES ovarian
OVCAR-3 ovarian = test system: OVCAR-3 ovarian
OVCAR-4 ovarian = test system: OVCAR-4 ovarian
OVCAR-5 ovarian = test system: OVCAR-5 ovarian
OVCAR-8 ovarian = test system: OVCAR-8 ovarian
PC-3 prostate = test system: PC-3 prostate
RXF 393 renal = test system: RXF 393 renal
SF-268 CNS = test system: SF-268 CNS
SF-295 CNS = test system: SF-295 CNS
SF-539 CNS = test system: SF-539 CNS
SK-MEL-2 melanoma = test system: SK-MEL-2 melanoma
SK-MEL-28 melanoma = test system: SK-MEL-28 melanoma
SK-MEL-5 melanoma = test system: SK-MEL-5 melanoma
SK-OV-3 ovarian = test system: SK-OV-3 ovarian
SN12C renal = test system: SN12C renal
SNB-19 CNS = test system: SNB-19 CNS
SNB-75 CNS = test system: SNB-75 CNS
SR leukemia = test system: SR leukemia
SW-620 colon = test system: SW-620 colon
T-47D breast = test system: T-47D breast
TK-10 renal = test system: TK-10 renal
U251 CNS = test system: U251 CNS
UACC-257 melanoma = test system: UACC-257 melanoma
UACC-62 melanoma = test system: UACC-62 melanoma

O=[N+]([O-])c1ccc(N=Nc2c(Cl)cc(O)cc2Cl)cc1
GI50 (786-0 renal): 2.22 µM | TGI (786-0 renal): 9.36 µM | GI50 (A498 renal): 1.73 µM | TGI (A498 renal): 4.6 µM | GI50 (A549 NSCLC): 2.88 µM | TGI (A549 NSCLC): 11.8 µM | GI50 (ACHN renal): 1.01 µM | TGI (ACHN renal): 11.6 µM | GI50 (BT-549 breast): 1.67 µM | TGI (BT-549 breast): 6.41 µM | GI50 (CAKI-1 renal): 2.26 µM | TGI (CAKI-1 renal): 5.79 µM | GI50 (CCRF-CEM leukemia): 0.571 µM | TGI (CCRF-CEM leukemia): 7.25 µM | GI50 (COLO 205 colon): 1.82 µM | TGI (COLO 205 colon): 4.17 µM | GI50 (DU-145 prostate): 2.45 µM | TGI (DU-145 prostate): 11.9 µM | GI50 (EKVX NSCLC): 1.94 µM | TGI (EKVX NSCLC): 5.57 µM | GI50 (HCC-2998 colon): 3.15 µM | TGI (HCC-2998 colon): 10.8 µM | GI50 (HCT-116 colon): 0.722 µM | TGI (HCT-116 colon): 3.08 µM | GI50 (HCT-15 colon): 2.02 µM | TGI (HCT-15 colon): 10.3 µM | GI50 (HL-60(TB) leukemia): 0.382 µM | TGI (HL-60(TB) leukemia): 2.86 µM | GI50 (HOP-62 NSCLC): 2.17 µM | TGI (HOP-62 NSCLC): 5.87 µM | GI50 (HOP-92 NSCLC): 0.285 µM | TGI (HOP-92 NSCLC): 2.01 µM | GI50 (HS 578T breast): 1.11 µM | TGI (HS 578T breast): 9.06 µM | GI50 (HT29 colon): 3.7 µM | TGI (HT29 colon): 12.6 µM | GI50 (K-562 leukemia): 0.605 µM | TGI (K-562 leukemia): > 100 µM | GI50 (KM12 colon): 1.41 µM | TGI (KM12 colon): 3.36 µM | GI50 (LOX IMVI melanoma): 1.73 µM | TGI (LOX IMVI melanoma): 10.6 µM | GI50 (M14 melanoma): 1.95 µM | TGI (M14 melanoma): 4.86 µM | GI50 (MCF7 breast): 1.17 µM | TGI (MCF7 breast): 6.43 µM | GI50 (MDA-MB-231 breast): 0.7 µM | TGI (MDA-MB-231 breast): 4.86 µM | GI50 (MDA-MB-435): 0.943 µM | TGI (MDA-MB-435): 3.16 µM | GI50 (MOLT-4 leukemia): 0.435 µM | TGI (MOLT-4 leukemia): 2.99 µM | GI50 (NCI-H226 lung): 2.83 µM | TGI (NCI-H226 lung): 11.3 µM | GI50 (NCI-H23 lung): 1.72 µM | TGI (NCI-H23 lung): 6.71 µM | GI50 (NCI-H460 lung): 1.41 µM | TGI (NCI-H460 lung): 4.77 µM | GI50 (NCI-H522 lung): 0.473 µM | TGI (NCI-H522 lung): 4.09 µM | GI50 (NCI/ADR-RES ovarian): 0.863 µM | TGI (NCI/ADR-RES ovarian): 8.49 µM | GI50 (OVCAR-3 ovarian): 0.462 µM | TGI (OVCAR-3 ovarian): 2.47 µM | GI50 (OVCAR-4 ovarian): 1.39 µM | TGI (OVCAR-4 ovarian): 12 µM | GI50 (OVCAR-5 ovarian): 4.22 µM | TGI (OVCAR-5 ovarian): 16.5 µM | GI50 (OVCAR-8 ovarian): 1.09 µM | TGI (OVCAR-8 ovarian): 5.63 µM | GI50 (PC-3 prostate): 2.72 µM | TGI (PC-3 prostate): 15.4 µM | GI50 (RXF 393 renal): 2.51 µM | TGI (RXF 393 renal): 13.5 µM | GI50 (SF-268 CNS): 1.18 µM | TGI (SF-268 CNS): 7.73 µM | GI50 (SF-295 CNS): 1.56 µM | TGI (SF-295 CNS): 3.06 µM | GI50 (SF-539 CNS): 3.1 µM | TGI (SF-539 CNS): 30.6 µM | GI50 (SK-MEL-2 melanoma): 1.66 µM | TGI (SK-MEL-2 melanoma): 4.39 µM | GI50 (SK-MEL-28 melanoma): 1.92 µM | TGI (SK-MEL-28 melanoma): 8.55 µM | GI50 (SK-MEL-5 melanoma): 1.48 µM | TGI (SK-MEL-5 melanoma): 3.55 µM | GI50 (SK-OV-3 ovarian): 2.1 µM | TGI (SK-OV-3 ovarian): 10.3 µM | GI50 (SN12C renal): 0.875 µM | TGI (SN12C renal): 10.3 µM | GI50 (SNB-19 CNS): 1.94 µM | TGI (SNB-19 CNS): 15.7 µM | GI50 (SNB-75 CNS): > 100 µM | TGI (SNB-75 CNS): > 100 µM | GI50 (SR leukemia): 0.421 µM | TGI (SR leukemia): 6.09 µM | GI50 (SW-620 colon): 1.6 µM | TGI (SW-620 colon): 10.3 µM | GI50 (T-47D breast): 0.657 µM | TGI (T-47D breast): 5.46 µM | GI50 (TK-10 renal): 4.34 µM | TGI (TK-10 renal): 25.8 µM | GI50 (U251 CNS): 0.977 µM | TGI (U251 CNS): 11.2 µM | GI50 (UACC-257 melanoma): 1.65 µM | TGI (UACC-257 melanoma): 4.49 µM | GI50 (UACC-62 melanoma): 1.39 µM | TGI (UACC-62 melanoma): 3.59 µM
